Blank lines part the entries; values can stand above or below the molecule they belong to. Activity calls are given as the source filed them. The rule behind the calls is not given here.
Columns and labels:
[1] = molecular target: T1, Polyunsaturated fatty acid lipoxygenase ALOX15 (Oryctolagus cuniculus, UniProt P12530); test: Inhibition of wild type rabbit N-terminal His-tagged ALOX15 expressed in Escherichia coli using arachidonic acid as substrate by spectrophotometric assay
T1 sequence (P12530 whole entry): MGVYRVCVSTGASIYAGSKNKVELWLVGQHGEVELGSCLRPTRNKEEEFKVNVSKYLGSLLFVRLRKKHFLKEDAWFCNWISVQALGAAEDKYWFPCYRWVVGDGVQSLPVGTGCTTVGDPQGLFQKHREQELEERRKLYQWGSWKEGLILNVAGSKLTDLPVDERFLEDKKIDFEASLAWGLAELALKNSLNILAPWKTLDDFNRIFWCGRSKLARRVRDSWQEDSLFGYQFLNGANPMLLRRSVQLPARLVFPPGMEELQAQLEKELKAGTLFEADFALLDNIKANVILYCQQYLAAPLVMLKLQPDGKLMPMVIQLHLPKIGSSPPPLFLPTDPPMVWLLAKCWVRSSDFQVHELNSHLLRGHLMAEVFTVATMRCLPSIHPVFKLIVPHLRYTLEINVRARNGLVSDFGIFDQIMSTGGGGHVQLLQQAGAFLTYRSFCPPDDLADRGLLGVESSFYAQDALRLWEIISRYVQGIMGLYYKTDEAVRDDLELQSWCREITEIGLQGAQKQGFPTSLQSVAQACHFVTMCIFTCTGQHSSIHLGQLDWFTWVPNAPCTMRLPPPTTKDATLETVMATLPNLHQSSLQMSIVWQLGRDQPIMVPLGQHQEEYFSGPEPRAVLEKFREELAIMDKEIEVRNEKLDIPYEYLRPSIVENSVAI

[2] = molecular target: T1, Polyunsaturated fatty acid lipoxygenase ALOX15; test: Inhibition of wild type rabbit N-terminal His-tagged ALOX15 expressed in Escherichia coli using linoleic acid as substrate by spectrophotometric assay
[3] = molecular target: T2, Polyunsaturated fatty acid lipoxygenase ALOX15 (Oryctolagus cuniculus) (UniProt P12530); test: Selectivity ratio of IC50 for inhibition of wild type Rabbit N-terminal His-tagged ALOX15 expressed in Escherichia coli using linoleic acid as substrate to IC50 for inhibition of wild type rabbit N-terminal His-tagged ALOX15 expressed in Escherichia coli using arachidonic acid as substrate by spectrophotometric assay
T2 sequence (whole entry): T1 sequence (P12530 whole entry)

[4] = molecular target: T2, Polyunsaturated fatty acid lipoxygenase ALOX15 (Oryctolagus cuniculus); test: (§1) Selectivity ratio of IC50 for inhibition of wild type rabbit N-terminal His-tagged ALOX15 expressed in Escherichia coli using linoleic acid as substrate to IC50 for inhibition of wild type rabbit N-terminal His-tagged ALOX15 expressed in Escherichia coli using arachidonic acid as substrate
[5] = molecular target: T2, Polyunsaturated fatty acid lipoxygenase ALOX15 (Oryctolagus cuniculus); test: Inhibition of wild type rabbit N-terminal His-tagged ALOX15 expressed in Escherichia coli assessed as decrease in Kcat using arachidonic acid as substrate
[6] = molecular target: T2, Polyunsaturated fatty acid lipoxygenase ALOX15 (Oryctolagus cuniculus); test: Inhibition of wild type rabbit N-terminal His-tagged ALOX15 expressed in Escherichia coli assessed as effect on Km using linoleic acid as substrate
[7] = molecular target: T3, Polyunsaturated fatty acid lipoxygenase ALOX15 (Mus musculus) (UniProt P39654); test: Inhibition of recombinant mouse N-terminal His-tagged ALOX15 expressed in Escherichia coli Rosetta2(DE3)pLysS at 2 uM using arachidonic acid as substrate by HPLC analysis
T3 sequence (whole entry): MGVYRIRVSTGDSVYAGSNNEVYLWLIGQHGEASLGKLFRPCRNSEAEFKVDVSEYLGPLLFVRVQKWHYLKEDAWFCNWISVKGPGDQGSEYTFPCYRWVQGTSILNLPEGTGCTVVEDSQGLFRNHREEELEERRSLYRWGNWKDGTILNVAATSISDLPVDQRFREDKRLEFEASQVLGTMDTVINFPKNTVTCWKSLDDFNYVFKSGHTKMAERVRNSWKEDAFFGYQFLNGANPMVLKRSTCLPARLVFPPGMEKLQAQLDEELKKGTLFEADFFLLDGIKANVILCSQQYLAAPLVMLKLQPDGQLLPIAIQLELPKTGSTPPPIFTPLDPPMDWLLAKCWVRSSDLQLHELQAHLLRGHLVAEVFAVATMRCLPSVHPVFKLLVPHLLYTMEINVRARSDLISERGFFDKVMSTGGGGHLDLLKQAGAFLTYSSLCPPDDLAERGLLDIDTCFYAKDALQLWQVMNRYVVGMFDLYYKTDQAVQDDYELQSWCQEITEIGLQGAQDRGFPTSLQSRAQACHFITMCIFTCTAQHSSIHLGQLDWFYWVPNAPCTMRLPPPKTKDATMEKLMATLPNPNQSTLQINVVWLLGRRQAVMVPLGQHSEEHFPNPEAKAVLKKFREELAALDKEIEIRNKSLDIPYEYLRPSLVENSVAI

[8] = molecular target: T2, Polyunsaturated fatty acid lipoxygenase ALOX15 (Oryctolagus cuniculus); test: Inhibition of wild type rabbit N-terminal His-tagged ALOX15 expressed in Escherichia coli assessed as decrease in Kcat using linoleic acid as substrate
[9] = molecular target: T3, Polyunsaturated fatty acid lipoxygenase ALOX15 (Mus musculus); test: Inhibition of recombinant mouse N-terminal His-tagged ALOX15 expressed in Escherichia coli Rosetta2(DE3)pLysS at 2 uM using linoleic acid as substrate by HPLC analysis
Oryctolagus cuniculus [10] = species on record: Oryctolagus cuniculus; test: Effect on rabbit wild type ALOX15 Ile418Ala mutant-mediated product pattern assessed as reduction in 12-H(p)ETE formation using arachidonic acid as substrate by 4 uM by RP-HPLC analysis
[11] = molecular target: T2, Polyunsaturated fatty acid lipoxygenase ALOX15 (Oryctolagus cuniculus); test: Effect on rabbit wild type ALOX15-mediated product pattern using arachidonic acid as substrate by 4 uM by RP-HPLC analysis
[12] = molecular target: T1, Polyunsaturated fatty acid lipoxygenase ALOX15; test: Non-competitive inhibition of wild type rabbit N-terminal His-tagged ALOX15 expressed in Escherichia coli assessed as inhibition constant using linoleic acid as substrate
[13] = Inhibition of rabbit N-terminal His-tagged ALOX15 L183E/L192E double mutant expressed in Escherichia coli linoleic acid as substrate by spectrophotometric assay; parameters: species or system Oryctolagus cuniculus
[14] = Inhibition of rabbit N-terminal His-tagged ALOX15 L183E/L192E double mutant expressed in Escherichia coli arachidonic acid as substrate by spectrophotometric assay; parameters: species or system Oryctolagus cuniculus
Oryctolagus cuniculus [15] = species on record: Oryctolagus cuniculus; test: Effect on rabbit wild type ALOX15 Ile418Ala mutant-mediated product pattern using arachidonic acid as substrate by 4 uM by RP-HPLC analysis
[16] = molecular target: T1, Polyunsaturated fatty acid lipoxygenase ALOX15; test: Mixed mode inhibition of wild type Rabbit N-terminal His-tagged ALOX15 expressed in Escherichia coli assessed as inhibition constant using linoleic acid as substrate
[17] = molecular target: T1, Polyunsaturated fatty acid lipoxygenase ALOX15; test: Mixed mode inhibition of wild type Rabbit N-terminal His-tagged ALOX15 expressed in Escherichia coli assessed as inhibition constant using arachidonic acid as substrate
[18] = molecular target: T4, Polyunsaturated fatty acid lipoxygenase ALOX15 (Homo sapiens) (UniProt P16050); test: as §1, with “recombinant human” for “wild type rabbit”, “coli Rosetta2(DE3)pLysS” for “coli”
T4 sequence (whole entry): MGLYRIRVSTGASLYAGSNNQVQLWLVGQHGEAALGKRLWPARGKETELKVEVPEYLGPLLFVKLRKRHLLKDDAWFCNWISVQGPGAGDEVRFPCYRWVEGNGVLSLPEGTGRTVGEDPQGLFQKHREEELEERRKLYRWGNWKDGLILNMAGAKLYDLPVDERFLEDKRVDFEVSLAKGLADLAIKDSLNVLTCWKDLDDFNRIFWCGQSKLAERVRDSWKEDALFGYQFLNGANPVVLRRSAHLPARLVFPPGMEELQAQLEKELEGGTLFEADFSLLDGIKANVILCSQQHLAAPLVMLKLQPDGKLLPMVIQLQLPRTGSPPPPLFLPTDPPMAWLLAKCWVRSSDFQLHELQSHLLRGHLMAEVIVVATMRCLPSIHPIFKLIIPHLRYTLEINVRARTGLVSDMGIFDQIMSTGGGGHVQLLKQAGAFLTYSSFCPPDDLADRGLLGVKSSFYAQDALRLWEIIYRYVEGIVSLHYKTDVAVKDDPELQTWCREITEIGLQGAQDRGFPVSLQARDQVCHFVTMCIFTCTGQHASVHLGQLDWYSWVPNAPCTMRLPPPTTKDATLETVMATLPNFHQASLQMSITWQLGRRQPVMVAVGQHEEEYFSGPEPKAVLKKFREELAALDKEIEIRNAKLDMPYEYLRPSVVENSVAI

[19] = compound: COc1ccc(-c2cc3cc(F)ccc3[nH]2)cc1NS(=O)(=O)NC(=O)OCC(C)C; test: Inhibition of wild type Rabbit N-terminal His-tagged ALOX15 expressed in Escherichia coli assessed as effect on Km using arachidonic acid as substrate; conditions: Oryctolagus cuniculus

- IC50 [1]: 23300 nM
- IC50 [2]: 540 nM
- Ratio IC50 [3]: 0.023
Molecule: C=CCOC(=O)NS(=O)(=O)Nc1cc(-c2cc3cc(F)ccc3[nH]2)ccc1OC

- Ratio IC50 [4]: 0.02
Molecule: CCCCCc1ccc(S(=O)(=O)NCCc2nc(-c3ccccn3)[nH]c2-c2ccc(OC)cc2)cc1

- IC50 [1]: > 50000 nM
- IC50 [2]: 15400 nM
Molecule: C=CCOC(=O)NS(=O)(=O)Nc1cccc(-c2cc3ccccc3[nH]2)c1

- IC50 [1]: 20800 nM
- inhibition [5]: Active
- Activity [6]: Active
- IC50 [2]: 420 nM
- Ratio IC50 [3]: 0.02
- Ki [12]: 290 nM
- Activity [8]: Active
Molecule: COc1ccc(-c2cc3cc(F)ccc3[nH]2)cc1NS(=O)(=O)NC(=O)OCC(C)C

- IC50 [1]: > 50000 nM
- IC50 [2]: 30000 nM
Molecule: CC(C)COC(=O)NS(=O)(=O)Nc1cccc(-c2cc3ccccc3[nH]2)c1

- Ratio IC50 [18]: 0.03
Molecule: COc1ccc(-c2cc3cc(F)c(F)cc3[nH]2)cc1NS(=O)(=O)NC(=O)OCC(C)C

- Ratio IC50 [4]: 0.22
Molecule: CCCCc1ccc(S(=O)(=O)NCCc2c(-c3ccc(OC)cc3)[nH]c3ccccc23)cc1

The remaining lines, values behind:

Molecule: CCCCCc1ccc(S(=O)(=O)NCCc2c[nH]c3ccccc23)cc1
- Ratio IC50 [4]: 0.8

Molecule: CCCCCCCCOC(=O)NS(=O)(=O)Nc1cc(-c2cc3ccccc3[nH]2)ccc1OC
- inhibition [5]: Active
- Activity [6]: Active
- inhibition [7]: inactive
- Activity [8]: Active
- inhibition [9]: inactive
- Activity (Oryctolagus cuniculus [10]): Active
- Activity [11]: inactive

Molecule: CCCCCCCCOC(=O)NS(=O)(=O)Nc1cc(-c2cc3cc(F)ccc3[nH]2)ccc1OC
- IC50 [1]: 1080 nM
- IC50 [2]: 47 nM
- Ratio IC50 [3]: 0.043

Molecule: COc1ccc(-c2cc3ccccc3[nH]2)cc1NS(=O)(=O)NC(=O)OCC(C)C
- IC50 [1]: > 50000 nM
- IC50 [2]: 1450 nM

Molecule: C=CCOC(=O)NS(=O)(=O)Nc1cc(-c2cc3ccccc3[nH]2)ccc1OC
- IC50 [1]: 43300 nM
- IC50 [2]: 630 nM
- Ratio IC50 [3]: 0.014

Molecule: CCCCCCCCOC(=O)NS(=O)(=O)Nc1cccc(-c2cc3ccccc3[nH]2)c1
- IC50 [13]: 7020 nM
- IC50 [1]: 2790 nM
- IC50 [2]: 1550 nM
- Ratio IC50 [3]: 0.55
- IC50 [14]: 4950 nM
- Ki [12]: 790 nM
- Activity (Oryctolagus cuniculus [15]): inactive
- Ki [16]: 790 nM
- Ki [17]: 3130 nM
- Activity [11]: inactive

B1: Polyunsaturated fatty acid lipoxygenase ALOX15 (Oryctolagus cuniculus), P12530 (protein)
chain: T1 sequence (P12530 whole entry)
- Km [19]: Active

From ChEMBL document CHEMBL5042531, “N-Substituted 5-(1H-Indol-2-yl)-2-methoxyanilines Are Allosteric Inhibitors of the Linoleate Oxygenase Activity of Selected Mammalian ALOX15 Orthologs: Mechanism of Action” (J Med Chem, 2022)
